Results from patent US20080009418A1, “Selective Inhibitors” (Alchemia LTD., priority 2004, published 2008).

Experiments:
Human Melanocortin (MC4) = biological target: T1, Human Melanocortin (MC4) (Homo sapiens, UniProt P32245); assay: Radioligand binding, human melanocortin MC4 membranes, FlashPlate, [125I]-NDP-αMSH; conditions: compound at 10 μM; for A4: inhibition of radioligand binding: [125I]-NDP-αMSH, FlashPlate
T1 construct: purchased Perkin Elmer Biosignal
Summary of the method: (§1)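 Cloned human receptor membranes were coated onto FlashPlate wells and incubated with radioligand and compound (added from a 0.5 mM DMSO daughter plate) for 1 hour at room temperature in the dark. Scintillation counting gave percent inhibition, with DMSO defining total and reference ligand defining non-specific binding.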

[1] = biological target: T2, Human melanin-concentrating hormone (MCH1) (Homo sapiens, UniProt Q99705); assay: Radioligand binding, human melanin-concentrating hormone MCH1 membranes, FlashPlate, [125I]-S36057; conditions: compound at 10 μM; for A6: inhibition of radioligand binding: [125I]-S36057, FlashPlate
T2 construct: purchased Perkin Elmer Biosignal
T2 sequence (Q99705 whole entry): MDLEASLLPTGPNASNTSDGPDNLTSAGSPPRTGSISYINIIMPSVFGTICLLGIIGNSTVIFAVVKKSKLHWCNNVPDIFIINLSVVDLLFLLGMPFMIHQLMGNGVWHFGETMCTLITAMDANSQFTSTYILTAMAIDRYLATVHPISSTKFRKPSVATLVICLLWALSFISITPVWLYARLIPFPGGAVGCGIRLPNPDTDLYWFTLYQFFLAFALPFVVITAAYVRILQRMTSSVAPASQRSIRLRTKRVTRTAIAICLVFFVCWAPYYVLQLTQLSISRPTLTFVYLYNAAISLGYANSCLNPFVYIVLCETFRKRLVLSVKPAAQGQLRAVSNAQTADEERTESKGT
Summary of the method: as §1

[2] = biological target: T3, Human neuropeptide Y (NPY-Y1) (Homo sapiens, UniProt P25929); assay: Radioligand binding, human neuropeptide Y NPY-Y1 membranes, FlashPlate, [125I]-PYY; conditions: compound at 10 μM; for A9: inhibition of radioligand binding: [125I]-PYY, FlashPlate
T3 construct: purchased Perkin Elmer Biosignal
T3 sequence (P25929 1-384): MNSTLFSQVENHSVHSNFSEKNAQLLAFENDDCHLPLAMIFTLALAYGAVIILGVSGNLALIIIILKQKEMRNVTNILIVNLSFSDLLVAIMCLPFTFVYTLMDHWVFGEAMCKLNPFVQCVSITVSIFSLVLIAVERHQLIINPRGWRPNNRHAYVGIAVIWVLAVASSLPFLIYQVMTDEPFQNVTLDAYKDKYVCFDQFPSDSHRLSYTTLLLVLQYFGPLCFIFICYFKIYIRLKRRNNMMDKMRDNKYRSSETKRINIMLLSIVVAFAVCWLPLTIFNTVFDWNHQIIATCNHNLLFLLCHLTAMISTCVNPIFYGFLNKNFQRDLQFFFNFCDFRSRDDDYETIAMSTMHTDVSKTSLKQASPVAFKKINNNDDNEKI
Summary of the method: as §1

Human opioid (ORL1) = biological target: T4, Human opioid (ORL1) (Homo sapiens, UniProt P41146); assay: Radioligand binding, human opioid ORL1 membranes, FlashPlate, [125I]-Nociceptin; conditions: compound at 10 μM; for A10: inhibition of radioligand binding: [125I]-Nociceptin, FlashPlate
T4 construct: purchased Perkin Elmer Biosignal
T4 sequence (P41146 whole entry): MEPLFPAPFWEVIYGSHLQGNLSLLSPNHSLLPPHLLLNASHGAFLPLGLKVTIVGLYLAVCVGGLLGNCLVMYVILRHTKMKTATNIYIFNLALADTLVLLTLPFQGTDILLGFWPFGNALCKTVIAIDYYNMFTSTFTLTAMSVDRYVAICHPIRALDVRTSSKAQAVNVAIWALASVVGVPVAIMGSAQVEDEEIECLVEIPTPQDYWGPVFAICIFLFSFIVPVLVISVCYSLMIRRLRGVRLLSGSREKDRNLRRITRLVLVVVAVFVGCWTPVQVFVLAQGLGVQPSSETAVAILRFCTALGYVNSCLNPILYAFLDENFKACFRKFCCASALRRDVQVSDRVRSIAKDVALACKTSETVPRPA
Summary of the method: as §1

Human δ-opioid (DOP) = biological target: T5, Human δ-opioid (DOP) (Homo sapiens, UniProt P41143); assay: Radioligand binding, human δ-opioid (DOP) membranes, FlashPlate, [3H]-Bremazocine; conditions: compound at 10 μM; for A1: inhibition of radioligand binding: [3H]-Bremazocine, FlashPlate
T5 construct: purchased Perkin Elmer Biosignal
T5 sequence (P41143 whole entry): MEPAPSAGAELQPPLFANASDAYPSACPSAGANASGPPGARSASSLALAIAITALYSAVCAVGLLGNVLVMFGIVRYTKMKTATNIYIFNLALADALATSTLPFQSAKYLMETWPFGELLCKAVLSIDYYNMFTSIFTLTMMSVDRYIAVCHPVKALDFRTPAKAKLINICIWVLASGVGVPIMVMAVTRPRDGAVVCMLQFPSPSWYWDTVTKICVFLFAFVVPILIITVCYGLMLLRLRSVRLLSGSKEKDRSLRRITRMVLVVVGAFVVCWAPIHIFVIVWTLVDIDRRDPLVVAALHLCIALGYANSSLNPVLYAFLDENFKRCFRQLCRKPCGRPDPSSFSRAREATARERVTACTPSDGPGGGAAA
Summary of the method: as §1

Human κ-Opioid (KOP) = biological target: T6, Human κ-Opioid (KOP) (Homo sapiens, UniProt P41145); assay: Radioligand binding, human κ-opioid (KOP) membranes, filtration, [3H]-Diprenorphine; conditions: compound at 10 μM; for A2: inhibition of radioligand binding: [3H]-Diprenorphine, filtration
T6 construct: purchased Perkin Elmer Biosignal
T6 sequence (P41145 whole entry): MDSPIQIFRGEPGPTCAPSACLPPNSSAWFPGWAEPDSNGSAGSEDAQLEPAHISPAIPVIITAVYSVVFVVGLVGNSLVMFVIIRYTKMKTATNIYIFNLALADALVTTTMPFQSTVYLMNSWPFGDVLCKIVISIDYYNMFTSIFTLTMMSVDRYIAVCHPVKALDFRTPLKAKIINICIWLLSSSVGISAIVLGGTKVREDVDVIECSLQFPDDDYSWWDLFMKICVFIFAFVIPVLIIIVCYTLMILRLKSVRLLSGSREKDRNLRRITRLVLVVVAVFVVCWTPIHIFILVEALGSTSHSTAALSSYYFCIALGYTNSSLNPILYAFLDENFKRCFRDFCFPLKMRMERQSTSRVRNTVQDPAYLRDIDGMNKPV
Summary of the method: (§2)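 Percent inhibition of radioligand binding measured on recombinant human membranes: NK1 with [125I]-Substance P, KOP with [3H]-Diprenorphine. Incubation 1 h at room temperature, then harvest onto 0.3% PEI-soaked filters, cold Tris-HCl pH 7.4 washes and scintillation counting; non-specific binding from reference ligand wells.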

Human neurokinin (NK1) = biological target: T7, Human neurokinin (NK1) (Homo sapiens, UniProt P25103); assay: Radioligand binding, human neurokinin NK1 membranes, filtration, [125I]-Substance P; conditions: compound at 10 μM; for A8: inhibition of radioligand binding: [125I]-Substance P, filtration
T7 construct: purchased Perkin Elmer Biosignal
T7 sequence (P25103 whole entry): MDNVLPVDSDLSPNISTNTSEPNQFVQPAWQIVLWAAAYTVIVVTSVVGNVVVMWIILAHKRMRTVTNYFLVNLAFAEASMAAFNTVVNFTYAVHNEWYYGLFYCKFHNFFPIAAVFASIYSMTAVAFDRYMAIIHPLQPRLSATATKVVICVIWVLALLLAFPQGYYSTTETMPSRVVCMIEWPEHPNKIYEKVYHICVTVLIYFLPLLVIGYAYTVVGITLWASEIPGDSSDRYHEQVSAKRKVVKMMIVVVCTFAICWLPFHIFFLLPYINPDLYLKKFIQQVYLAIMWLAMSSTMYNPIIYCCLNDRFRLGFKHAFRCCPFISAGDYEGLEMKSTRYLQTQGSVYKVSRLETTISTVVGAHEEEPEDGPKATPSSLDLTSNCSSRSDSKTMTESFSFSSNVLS
Summary of the method: as §2

Human Melanocortin (MC3) = biological target: T8, Human Melanocortin (MC3) (Homo sapiens, UniProt P41968); assay: Radioligand binding, human melanocortin MC3 membranes, FlashPlate, [125I]-NDP-αMSH; conditions: compound at 10 μM; for A3: inhibition of radioligand binding: [125I]-NDP-αMSH, FlashPlate
T8 construct: purchased Perkin Elmer Biosignal
T8 sequence (P41968 whole entry): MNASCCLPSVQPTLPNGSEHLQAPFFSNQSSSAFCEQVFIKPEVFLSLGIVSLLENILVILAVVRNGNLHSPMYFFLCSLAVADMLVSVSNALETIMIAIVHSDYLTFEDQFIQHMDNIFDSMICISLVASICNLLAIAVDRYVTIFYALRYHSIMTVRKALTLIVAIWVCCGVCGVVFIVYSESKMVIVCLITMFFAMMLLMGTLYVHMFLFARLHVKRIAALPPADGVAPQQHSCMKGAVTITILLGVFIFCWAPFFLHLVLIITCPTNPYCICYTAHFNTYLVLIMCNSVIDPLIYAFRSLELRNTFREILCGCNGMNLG
Summary of the method: as §1

Human μ-opioid (MOP) = biological target: T9, Human μ-opioid (MOP) (Homo sapiens, UniProt P35372); assay: Radioligand binding, human μ-opioid (MOP) membranes, FlashPlate, [3H]-Naloxone; conditions: compound at 10 μM; for A7: inhibition of radioligand binding: [3H]-Naloxone, FlashPlate
T9 construct: purchased Perkin Elmer Biosignal
T9 sequence (P35372 whole entry): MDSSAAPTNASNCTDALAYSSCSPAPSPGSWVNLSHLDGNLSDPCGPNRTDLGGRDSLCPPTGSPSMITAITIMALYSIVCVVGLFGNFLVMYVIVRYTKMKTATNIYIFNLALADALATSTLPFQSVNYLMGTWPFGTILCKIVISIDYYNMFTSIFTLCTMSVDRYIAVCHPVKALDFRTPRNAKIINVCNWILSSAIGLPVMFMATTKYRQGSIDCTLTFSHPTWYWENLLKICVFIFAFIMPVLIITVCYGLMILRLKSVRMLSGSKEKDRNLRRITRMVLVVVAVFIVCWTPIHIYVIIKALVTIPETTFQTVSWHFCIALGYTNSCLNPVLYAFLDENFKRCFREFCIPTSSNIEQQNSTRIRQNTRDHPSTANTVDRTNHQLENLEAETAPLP
Summary of the method: as §1

Mouse urotensin (mUR2) = biological target: T10, Mouse urotensin (mUR2) (Mus musculus, UniProt Q8VIH9); assay: Radioligand binding, mouse urotensin mUR2 membranes, FlashPlate, [125I]-Urotensin II; conditions: compound at 10 μM; for A11: inhibition of radioligand binding: [125I]-Urotensin II, FlashPlate
T10 construct: purchased Perkin Elmer Biosignal
T10 sequence (Q8VIH9 1-385): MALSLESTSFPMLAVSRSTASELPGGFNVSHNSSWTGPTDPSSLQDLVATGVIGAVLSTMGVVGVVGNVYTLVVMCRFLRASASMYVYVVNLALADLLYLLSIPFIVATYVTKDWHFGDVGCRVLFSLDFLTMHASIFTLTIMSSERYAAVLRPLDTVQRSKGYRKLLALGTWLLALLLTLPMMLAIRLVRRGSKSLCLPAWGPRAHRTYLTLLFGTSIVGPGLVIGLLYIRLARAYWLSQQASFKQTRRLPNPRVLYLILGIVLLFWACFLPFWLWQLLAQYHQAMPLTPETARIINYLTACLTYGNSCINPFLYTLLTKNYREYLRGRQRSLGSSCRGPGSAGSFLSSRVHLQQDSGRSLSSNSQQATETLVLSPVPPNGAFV
Summary of the method: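 Cloned mouse urotensin (mUR2) receptor membranes from Perkin Elmer Biosignal were immobilized in FlashPlate microplates using a proprietary coating. Each well got 19.5 μl buffer, then 0.5 μl of DMSO, reference ligand, or compound. Adding 5 μl of [125I]-Urotensin II, diluted to 5× final concentration in binding buffer, started binding. Plates were sealed with TopSeal-A and incubated 1 hour at room temperature in the dark. Wells were counted for 30 seconds each on a TopCount after a 60-second delay, and percentage inhibition was calculated.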

Human melanocortin (MC5) = biological target: T11, Human melanocortin (MC5) (Homo sapiens, UniProt P33032); assay: Radioligand binding, human melanocortin MC5 membranes, FlashPlate, [125I]-NDP-αMSH; conditions: compound at 10 μM; for A5: inhibition of radioligand binding: [125I]-NDP-αMSH, FlashPlate
T11 construct: purchased Perkin Elmer Biosignal
T11 sequence (P33032 whole entry): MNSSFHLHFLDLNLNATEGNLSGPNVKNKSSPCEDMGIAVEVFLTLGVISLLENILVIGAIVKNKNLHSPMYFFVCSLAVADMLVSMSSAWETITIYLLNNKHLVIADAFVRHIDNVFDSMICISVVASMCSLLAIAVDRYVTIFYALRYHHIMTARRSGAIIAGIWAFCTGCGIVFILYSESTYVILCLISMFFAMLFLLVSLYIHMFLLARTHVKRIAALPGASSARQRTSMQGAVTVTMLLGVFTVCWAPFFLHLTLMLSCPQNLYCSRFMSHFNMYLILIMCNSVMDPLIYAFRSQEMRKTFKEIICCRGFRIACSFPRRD
Summary of the method: as §1

T1 sequence (P32245 whole entry): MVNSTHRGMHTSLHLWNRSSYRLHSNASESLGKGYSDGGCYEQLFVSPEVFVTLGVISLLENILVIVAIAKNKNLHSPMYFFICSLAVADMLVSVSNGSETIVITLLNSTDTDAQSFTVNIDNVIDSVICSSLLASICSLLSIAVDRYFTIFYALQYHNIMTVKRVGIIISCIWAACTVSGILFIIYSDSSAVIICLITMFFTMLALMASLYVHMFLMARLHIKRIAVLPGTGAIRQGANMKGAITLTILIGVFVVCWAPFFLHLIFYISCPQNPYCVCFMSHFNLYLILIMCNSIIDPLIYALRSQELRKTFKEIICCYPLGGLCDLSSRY

Compound	A4: inhibition of radioligand binding (Human Melanocortin (MC4))	A6: inhibition of radioligand binding [1]	A9: inhibition of radioligand binding [2]	A10: inhibition of radioligand binding (Human opioid (ORL1))	A1: inhibition of radioligand binding (Human δ-opioid (DOP))	A2: inhibition of radioligand binding (Human κ-Opioid (KOP))	A8: inhibition of radioligand binding (Human neurokinin (NK1))	A3: inhibition of radioligand binding (Human Melanocortin (MC3))	A7: inhibition of radioligand binding (Human μ-opioid (MOP))	A11: inhibition of radioligand binding (Mouse urotensin (mUR2))	A5: inhibition of radioligand binding (Human melanocortin (MC5))	also measured
CO[C@H]1[C@H](O)[C@@H](COCc2ccc(-c3ccccc3)cc2)OC(OCc2ccccc2)[C@@H]1NC(=O)CCCN (stereo partly drawn) [compound 84]												A4 radioligand binding inhibition (Human Melanocortin (MC4); human melanocortin MC4 membranes): − (“−” indicates less than 50% inhibition at 10 μM); A6 radioligand binding inhibition ([1]; human MCH1 membranes): − (“−” indicates less than 50% inhibition at 10 μM); A9 radioligand binding inhibition ([2]; human NPY-Y1 membranes): − (“−” indicates less than 50% inhibition at 10 μM); A10 radioligand binding inhibition (Human opioid (ORL1); human ORL1 membranes): − (“−” indicates less than 50% inhibition at 10 μM); A1 radioligand binding inhibition (Human δ-opioid (DOP); human δ-opioid (DOP) membranes): − (“−” indicates less than 50% inhibition at 10 μM); A2 radioligand binding inhibition (Human κ-Opioid (KOP); human κ-opioid (KOP) membranes): − (“−” indicates less than 50% inhibition at 10 μM); A8 radioligand binding inhibition (Human neurokinin (NK1); human neurokinin NK1 membranes): + (“+” indicates greater than 50% inhibition at 10 μM); A3 radioligand binding inhibition (Human Melanocortin (MC3); human melanocortin MC3 membranes): − (“−” indicates less than 50% inhibition at 10 μM); A7 radioligand binding inhibition (Human μ-opioid (MOP); human μ-opioid (MOP) membranes): − (“−” indicates less than 50% inhibition at 10 μM); A11 radioligand binding inhibition (Mouse urotensin (mUR2); mouse urotensin mUR2 membranes): − (“−” indicates less than 50% inhibition at 10 μM); A5 radioligand binding inhibition (Human melanocortin (MC5); human melanocortin MC5 membranes): − (“−” indicates less than 50% inhibition at 10 μM)
COCC1OC(OCCc2ccccc2)C(NC(=O)CCN)C(OCc2ccc3ccccc3c2)C1O (stereo not drawn) [compound 227]	− (“−” indicates less than 50% inhibition at 10 μM)	− (“−” indicates less than 50% inhibition at 10 μM)	− (“−” indicates less than 50% inhibition at 10 μM)	− (“−” indicates less than 50% inhibition at 10 μM)	− (“−” indicates less than 50% inhibition at 10 μM)	− (“−” indicates less than 50% inhibition at 10 μM)	+ (“+” indicates greater than 50% inhibition at 10 μM)	− (“−” indicates less than 50% inhibition at 10 μM)	− (“−” indicates less than 50% inhibition at 10 μM)	− (“−” indicates less than 50% inhibition at 10 μM)	− (“−” indicates less than 50% inhibition at 10 μM)	
COCC1OC(OCCc2ccccc2)C(NC(=O)CNC(=N)N)C(OCc2ccc3ccccc3c2)C1O (stereo not drawn) [compound 226]	+ (“+” indicates greater than 50% inhibition at 10 μM)	− (“−” indicates less than 50% inhibition at 10 μM)	− (“−” indicates less than 50% inhibition at 10 μM)	− (“−” indicates less than 50% inhibition at 10 μM)	− (“−” indicates less than 50% inhibition at 10 μM)	− (“−” indicates less than 50% inhibition at 10 μM)	+ (“+” indicates greater than 50% inhibition at 10 μM)	+ (“+” indicates greater than 50% inhibition at 10 μM)	− (“−” indicates less than 50% inhibition at 10 μM)	− (“−” indicates less than 50% inhibition at 10 μM)	+ (“+” indicates greater than 50% inhibition at 10 μM)	
